Molecules are shown by their SMILES.

Data on 6 compounds can be found in patent US20230192700A1, “PYRAZOLOPYRAZINES ACTING ON CANCERS VIA INHIBITION OF CDK12” (Bayer Aktiengesellschaft, priority 2020, published 2023).

The test system of test [1] is MDA-MB-231 human breast cancer cells. The test can be described thus: Proliferation assay MDA-MB-231 (crystal violet). Type of test: cell-based. Conditions: Homo sapiens, MDA-MB-231, 96 h, MDA-MB-231 cells, 4 days, median, read-out: Prolif-MDA MB231 IC50 - [mol/l] (median). An outline of the steps: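 Cells seeded at 4,000/well in medium with 10% fetal calf serum, dosed after 24 h (0.01-10 micromol/L, 0.1% DMSO) and grown 4 days. Crystal violet staining read at 595 nm, normalised to zero-point plate (0%) and untreated cells (100%); IC50 by 4-parameter fit.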

A further test concerns the target T1, CYCLIN K (Homo sapiens, UniProt O75909).
T1 construct: endogenous in cells; host or cells: CAL-120 human breast cancer cells (DSMZ ACC 459)
As to the kind of experiment: CYCLIN K nuclear protein level: immunofluorescence/high content analysis in CAL-120 cells. Type of test: cell-based. To be noted: 24 h, nuclear CCNK staining intensity, median, read-out: CYCLIN K degradation IF, DC50- [mol/l] (median). The method, boiled down:
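CAL-120 cells were incubated with compound in dose-response for 24 h at 37° C, then fixed, immunostained for CYCLIN K and Hoechst-counterstained. Confocal imaging gave nuclear intensity. DC50 is the concentration giving 50% reduction of nuclear CCNK staining relative to DMSO and reference controls.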

T1 sequence (O75909 whole entry): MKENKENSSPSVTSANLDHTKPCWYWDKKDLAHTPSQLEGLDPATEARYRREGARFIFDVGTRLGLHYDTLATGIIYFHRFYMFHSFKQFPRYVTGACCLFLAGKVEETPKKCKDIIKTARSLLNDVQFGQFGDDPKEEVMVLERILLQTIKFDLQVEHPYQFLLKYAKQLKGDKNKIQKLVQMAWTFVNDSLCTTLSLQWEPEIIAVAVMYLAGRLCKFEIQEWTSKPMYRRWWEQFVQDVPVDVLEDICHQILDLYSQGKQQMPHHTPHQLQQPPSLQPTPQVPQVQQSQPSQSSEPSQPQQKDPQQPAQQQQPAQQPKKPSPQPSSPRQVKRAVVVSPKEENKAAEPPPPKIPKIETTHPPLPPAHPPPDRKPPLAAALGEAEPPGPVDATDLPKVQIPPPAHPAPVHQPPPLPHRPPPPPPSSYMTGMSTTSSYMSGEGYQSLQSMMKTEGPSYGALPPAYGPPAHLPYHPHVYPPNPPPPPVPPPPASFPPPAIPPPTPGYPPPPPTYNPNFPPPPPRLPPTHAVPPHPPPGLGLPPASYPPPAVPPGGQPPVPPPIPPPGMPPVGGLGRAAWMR
T1 sequence (Q9NYV4 whole entry partner): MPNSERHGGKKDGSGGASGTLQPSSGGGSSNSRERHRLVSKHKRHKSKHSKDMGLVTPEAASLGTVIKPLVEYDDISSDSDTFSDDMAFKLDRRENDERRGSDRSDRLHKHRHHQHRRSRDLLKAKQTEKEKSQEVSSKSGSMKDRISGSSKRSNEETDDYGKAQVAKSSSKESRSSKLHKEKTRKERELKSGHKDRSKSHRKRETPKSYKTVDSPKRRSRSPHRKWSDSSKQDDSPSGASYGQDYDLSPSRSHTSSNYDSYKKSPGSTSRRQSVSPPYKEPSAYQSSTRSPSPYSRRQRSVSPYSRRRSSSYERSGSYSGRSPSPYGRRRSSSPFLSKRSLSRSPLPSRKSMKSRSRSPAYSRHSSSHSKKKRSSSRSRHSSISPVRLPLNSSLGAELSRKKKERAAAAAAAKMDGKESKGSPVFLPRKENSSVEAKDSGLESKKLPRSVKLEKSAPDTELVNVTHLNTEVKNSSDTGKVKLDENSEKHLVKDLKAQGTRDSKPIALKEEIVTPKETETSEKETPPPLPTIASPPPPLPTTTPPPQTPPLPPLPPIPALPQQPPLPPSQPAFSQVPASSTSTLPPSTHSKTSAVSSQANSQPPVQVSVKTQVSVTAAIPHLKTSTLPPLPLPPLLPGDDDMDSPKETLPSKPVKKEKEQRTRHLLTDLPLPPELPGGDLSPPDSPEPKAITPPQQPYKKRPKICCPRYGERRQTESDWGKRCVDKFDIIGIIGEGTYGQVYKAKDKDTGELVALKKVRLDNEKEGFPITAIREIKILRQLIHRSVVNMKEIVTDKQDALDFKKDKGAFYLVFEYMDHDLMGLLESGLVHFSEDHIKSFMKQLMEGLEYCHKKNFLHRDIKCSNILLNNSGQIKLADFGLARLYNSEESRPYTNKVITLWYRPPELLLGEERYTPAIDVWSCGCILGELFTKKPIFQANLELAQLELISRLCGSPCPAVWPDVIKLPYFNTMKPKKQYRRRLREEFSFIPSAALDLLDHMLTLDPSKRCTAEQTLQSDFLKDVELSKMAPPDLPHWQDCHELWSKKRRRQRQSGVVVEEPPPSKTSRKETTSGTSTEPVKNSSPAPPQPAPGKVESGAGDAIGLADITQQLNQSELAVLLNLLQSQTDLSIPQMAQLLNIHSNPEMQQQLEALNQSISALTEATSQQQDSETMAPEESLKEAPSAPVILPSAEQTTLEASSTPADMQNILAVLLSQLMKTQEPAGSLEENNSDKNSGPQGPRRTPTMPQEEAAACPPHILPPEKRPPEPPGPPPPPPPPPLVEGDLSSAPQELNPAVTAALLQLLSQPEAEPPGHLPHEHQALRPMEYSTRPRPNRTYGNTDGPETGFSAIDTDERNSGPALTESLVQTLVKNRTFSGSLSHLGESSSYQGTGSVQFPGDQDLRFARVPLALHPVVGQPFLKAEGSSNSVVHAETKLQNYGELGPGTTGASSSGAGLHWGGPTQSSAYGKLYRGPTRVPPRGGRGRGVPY

Regarding `OC1(Cn2nc(NCc3nc4ccccc4[nH]3)c3ncc(C4CC4)nc32)CCC1` [Example 72, 1-[(3-{[(1H-benzimidazol-2-yl)methyl]amino}-6-cyclopropyl-1H-pyrazolo[3,4-b]pyrazin-1-yl)methyl]cyclobutan-1-ol], the IC50 in test [1] turned out to be 109 nM. Besides, the DC50 on CYCLIN K is 23.4 nM.

Regarding `OC1(Cn2nc(NCc3nc4ccccc4[nH]3)c3ncc(C4CC4)nc32)CCCC1` [Example 73, 1-[(3-{[(1H-benzimidazol-2-yl)methyl]amino}-6-cyclopropyl-1H-pyrazolo[3,4-b]pyrazin-1-yl)methyl]cyclopentan-1-ol], the IC50 in test [1] is 141 nM. Moreover, at CYCLIN K, the DC50 came out at 53.2 nM.

Take `OCC1(Cn2nc(NCc3nc4ccccc4[nH]3)c3ncc(C4CC4)nc32)CCC1` [Example 74, {1-[(3-{[(1H-benzimidazol-2-yl)methyl]amino}-6-cyclopropyl-1H-pyrazolo[3,4-b]pyrazin-1-yl)methyl]cyclobutyl}methanol]: the IC50 in test [1] worked out at 251 nM. The DC50 at CYCLIN K turned out to be 13.6 nM.

`c1ccc2[nH]c(CNc3nn(CC4CCC4)c4nc(C5CC5)cnc34)nc2c1` [Example 75, N-[(1H-benzimidazol-2-yl)methyl]-1-(cyclobutylmethyl)-6-cyclopropyl-1H-pyrazolo[3,4-b]pyrazin-3-amine]: the IC50 in test [1] was found to be 376 nM. Also, the DC50 at CYCLIN K was found to be 124 nM.

For `CC(C)(O)CCn1nc(NCc2nc3ccccc3[nH]2)c2ncc(C3CC3)nc21` [Example 76, 4-(3-{[(1H-benzimidazol-2-yl)methyl]amino}-6-cyclopropyl-1H-pyrazolo[3,4-b]pyrazin-1-yl)-2-methylbutan-2-ol], the IC50 in test [1] was determined as 124 nM. Besides, the DC50 at CYCLIN K stood at 8.11 nM.

`Cc1cnc2c(NCc3nc4ccccc4[nH]3)nn(C3CCN(C)CC3)c2n1` [Example 77, N-[(1H-benzimidazol-2-yl)methyl]-6-methyl-1-(1-methylpiperidin-4-yl)-1H-pyrazolo[3,4-b]pyrazin-3-amine]: the IC50 in test [1] is 3000 nM. Moreover, at CYCLIN K, the DC50 was 118 nM.
